Source: PMC10288926 (Journal of Enzyme Inhibition and Medicinal Chemistry, 2023)
Like-named read-outs stand apart in the source and are kept apart here. Each block holds one compound with its values, some of them ahead of it.

Key:
ROS1-G2032R = details: read-out: cellular IC50 ROS1-G2032R; cited from earlier work
[1] = target: Ba/F3 CD74-ROS1^G2032R cell (Homo sapiens, UniProt P04233+P08922, G2032R); experiment: Antiproliferative CCK-8 assay, Ba/F3 CD74-ROS1^G2032R; assay type: cell-based; details: for IC50: read-out: Ba/F3 cellular activities (nM) CD74-ROS1^G2032R, 72 h exposure, IC50, at least three independent experiments
[2] = tested on: NCI-H3122 cell line harbouring EML4-ALK fusion; experiment: Antiproliferative MTT assay, NCI-H3122; assay type: cell-based, human; details: read-out: Cellular IC50 (μM) NCI-H3122
Ba/F3 CD74-ROS1^WT cell = Ba/F3 CD74-ROS1^WT cell (Homo sapiens, UniProt P04233+P08922); experiment: Antiproliferative CCK-8 assay, Ba/F3 CD74-ROS1^WT; assay type: cell-based; details: 72 h exposure, IC50, at least three independent experiments; for IC50: read-out: Ba/F3 cellular activities (nM) CD74-ROS1^WT
Ba/F3 EML4-ALK^WT cell = Ba/F3 EML4-ALK^WT cell (Homo sapiens, UniProt Q9HC35+Q9UM73); assay type: cell-based; details: read-out: Ba/F3 cellular activities (nM) EML4-ALK^WT; 72 h exposure, IC50, at least three independent experiments
ROS1 = ROS1 (Homo sapiens, UniProt P08922); experiment: HTRF KinEASE-TK kinase inhibitory assay, ROS1; assay type: biochemical; details: for ROS1 Inhibition (1μM): kinase inhibition % at 1 μM; for inhibition at 1 µM: read-out: ROS1 Inhibition (1μM)
ALK^G1202R = ALK^G1202R (Homo sapiens, UniProt Q9UM73, G1202R); experiment: HTRF KinEASE-TK kinase inhibitory assay, ALK^G1202R; assay type: biochemical
[3] = target: Ba/F3 CD74-ROS1^L2026M cell (Homo sapiens, UniProt P04233+P08922, L2026M); experiment: Antiproliferative CCK-8 assay, Ba/F3 CD74-ROS1^L2026M; assay type: cell-based; details: read-out: Ba/F3 cellular activities (nM) CD74-ROS1^L2026M; 72 h exposure, IC50, at least three independent experiments
[4] = tested on: HCC-78 cell line harbouring SLC34A2-ROS1 fusion; experiment: Antiproliferative MTT assay, HCC-78; assay type: cell-based, human; details: read-out: Cellular IC50 (μM) HCC-78
ALK^WT = ALK^WT (Homo sapiens, UniProt Q9UM73); experiment: HTRF KinEASE-TK kinase inhibitory assay, ALK wild type; assay type: biochemical; details: for ALK Inhibition (1μM): kinase inhibition % at 1 μM
[5] = target: Ba/F3 EML4-ALK^L1196M cell (Homo sapiens, UniProt Q9HC35+Q9UM73, L1196M); assay type: cell-based; details: read-out: Ba/F3 cellular activities (nM) EML4-ALK^L1196M; 72 h exposure, IC50, at least three independent experiments
c-MET = c-MET (Homo sapiens, UniProt P08581); experiment: HTRF kinase inhibitory assay, c-MET; assay type: biochemical; details: for c-MET Inhibition (1μM): kinase inhibition % at 1 μM
ALK^L1196M = ALK^L1196M (Homo sapiens, UniProt Q9UM73, L1196M); experiment: HTRF KinEASE-TK kinase inhibitory assay, ALK^L1196M; assay type: biochemical
[6] = tested on: phosphorylation of ROS1 and ERK in CD74-ROS1^L2026M cell; experiment: Western blot of ROS1 and ERK phosphorylation, CD74-ROS1^L2026M Ba/F3 cells; assay type: cell-based
[7] = tested on: phosphorylation of ROS1 and ERK in CD74-ROS1^WT cell; experiment: Western blot of ROS1 and ERK phosphorylation, CD74-ROS1^WT Ba/F3 cells; assay type: cell-based
ALK = details: read-out: enzymatic IC50 against ALK; cited from earlier work
[8] = tested on: phosphorylation of ALK in EML4-ALK^L1196M cell; experiment: Western blot of phosphorylation, EML4-ALK^L1196M Ba/F3 cells; assay type: cell-based
[9] = tested on: ROS1 phosphorylation in CD74-ROS1^G2032R cell; experiment: Western blot of ROS1 phosphorylation, CD74-ROS1^G2032R Ba/F3 cells; assay type: cell-based; details: up to 1000 nM
NCI-H3122 cells = experiment: Apoptosis assay; assay type: cell-based, human; details: 48 h, vehicle 11.24%
HCC-78 cells = experiment: Apoptosis assay; assay type: cell-based, human
[10] = MTT, 72 h, mean of at least three independent experiments
[11] = read-out: ROS1 IC50, average of two independent experiments
[12] = read-out: Enzymatic activities (nM) ALK^G1202R, IC50, average of two independent experiments
[13] = read-out: Enzymatic activities (nM) ALK^L1196M, IC50, average of two independent experiments
[14] = average of two independent experiments

Compound: C[C@H]1Oc2cc(cnc2N)-c2c(nn(C)c2C#N)CN(C)C(=O)c2ccc(F)cc21 [Lorlatinib]
- IC50 (ROS1-G2032R): 203 nM

Compound: (R)-5–(6-amino-5–(1-(4'-fluoro-[1,1'-biphenyl]-2-yl)ethoxy)pyridin-3-yl)-1'-methylspiro[indoline-3,4'-piperidin]-2-one [C02]
- IC50 [1]: 107 ± 12.6 nM
- IC50 [2, 10]: 2.8 ± 0.9 µM
- Ba/F3 cellular activities (nM) CD74-ROS1^WT (Ba/F3 CD74-ROS1^WT cell): comparable to Crizotinib
- IC50 (Ba/F3 CD74-ROS1^WT cell): 5.4 ± 1 nM
- IC50 (Ba/F3 EML4-ALK^WT cell): 191 ± 51.8 nM
- ROS1 Inhibition (1μM) (ROS1; average of two independent experiments, 1 µM): 102%
- IC50 (ROS1; [11]): 4.6 nM
- IC50 (ALK^G1202R; [12]): 276 nM
- IC50 [3]: 21.3 ± 4.7 nM
- IC50 [4, 10]: 4.4 ± 0.5 µM
- ALK Inhibition (1μM) (ALK^WT; 1 µM): 98%
- IC50 (ALK^WT; read-out: ALK IC50): 30.1 nM
- IC50 [5]: 148 ± 27.3 nM
- c-MET Inhibition (1μM) (c-MET; 1 µM): 69%
- IC50 (ALK^L1196M; [13]): 643 nM

- IC50 [1]: 317 ± 92.1 nM
- IC50 ([2]; Homo sapiens, NCI-H3122, 72 h): 5.7 ± 0.6 µM
- IC50 (Ba/F3 CD74-ROS1^WT cell): 20.9 ± 1.7 nM
- IC50 (Ba/F3 EML4-ALK^WT cell): 681 ± 151 nM
- IC50 (ROS1): 37.4 nM
- fold more potent than compound B03, ROS1 IC50 (ROS1): about 10 fold
- inhibition at 1 µM (ROS1): 103%
- IC50 (ALK^G1202R): 195 nM
- IC50 [3]: 168 ± 56.3 nM
- IC50 ([4]; Homo sapiens, HCC78, 72 h): 4.6 ± 0.8 µM
- IC50 (ALK^WT): 67.4 nM
- fold more potent than compound B03, ALK IC50 (ALK^WT): ~4 fold
- inhibition at 1 µM (ALK^WT; read-out: ALK Inhibition (1μM)): 100%
- IC50 [5]: 1810 ± 270 nM
- inhibition at 1 µM (c-MET; read-out: c-MET Inhibition (1μM)): 64%
- IC50 (ALK^L1196M): > 1000 nM
Compound: C[C@@H](Oc1cc(-c2cnn(C)c2)cnc1N)c1ccccc1-c1ccccc1 [B08, (R)-3–(1-([1,1'-biphenyl]-2-yl)ethoxy)-5–(1-methyl-1H-pyrazol-4-yl)pyridin-2-amine]

- inhibition at 1 µM (ROS1): 101%
- IC50 ([4]; Homo sapiens, HCC78, 72 h): 4.5 ± 1.4 µM
Compound: C[C@@H](Oc1cc(-c2cnn(C3CCNCC3)c2)cnc1N)c1c(Cl)ccc(F)c1Cl [Crizotinib, reference compound]
- phosphorylation of ROS1 and ERK, CD74-ROS1^L2026M cell [6]: attenuated phosphorylation of ROS1 and its key downstream molecule ERK in a dose-dependent manner
- phosphorylation of ROS1 and ERK, CD74-ROS1^WT cell [7]: attenuated phosphorylation of ROS1 and its key downstream molecule ERK in a dose-dependent manner

Compound: C[C@@H](Oc1cc(-c2ccc3c(c2)NC(=O)C32CCN(C)CC2)cnc1N)c1c(Cl)ccc(F)c1Cl [SMU-B, reference compound]
- IC50 (ALK): < 0.5 nM
- IC50 (ROS1; [11]): 1.48 nM

Compound: (R)-5–(6-amino-5–(1-(4'-methoxy-[1,1'-biphenyl]-2-yl)ethoxy)pyridin-3-yl)-1'-methylspiro[indoline-3,4'-piperidin]-2-one [C03]
- IC50 [1]: 94.4 ± 31.9 nM
- IC50 [2, 10]: 1.9 ± 0.1 µM
- IC50 (Ba/F3 CD74-ROS1^WT cell): 18.3 ± 1.2 nM
- IC50 (Ba/F3 EML4-ALK^WT cell): 228 ± 47.3 nM
- ROS1 Inhibition (1μM) (ROS1; [14]): 101%
- IC50 (ROS1; [11]): 11.6 nM
- IC50 (ALK^G1202R; [12]): 492 nM
- IC50 [3]: 38.3 ± 5.9 nM
- IC50 [4, 10]: 4.6 ± 0.23 µM
- ALK Inhibition (1μM) (ALK^WT): 94%
- IC50 (ALK^WT; read-out: ALK IC50): 56.1 nM
- IC50 [5]: 185 ± 22.2 nM
- c-MET Inhibition (1μM) (c-MET): 63%

Compound: (R)-5–(5-(1-([1,1'-biphenyl]-2-yl)ethoxy)-6-aminopyridin-3-yl)-1'-methylspiro[indoline-3,4'-piperidin]-2-one [C01]
- phosphorylation of ROS1 and ERK, CD74-ROS1^L2026M cell [6]: attenuated phosphorylation of ROS1 and its key downstream molecule ERK in a dose-dependent manner
- fold more potent than Crizotinib, CD74-ROS1^G2032R cell ([1]; ratio of cellular IC50 to Crizotinib): about 30 fold
- IC50 [1]: 42.3 nM
- IC50 [2, 10]: 3 ± 0.1 µM
- Ba/F3 cellular activities (nM) CD74-ROS1^WT (Ba/F3 CD74-ROS1^WT cell): comparable to Crizotinib
- IC50 (Ba/F3 CD74-ROS1^WT cell): 7.6 ± 0.6 nM
- IC50 (Ba/F3 EML4-ALK^WT cell): 145 ± 36 nM
- phosphorylation, EML4-ALK^L1196M cell [8]: persistent potency
- ROS1 phosphorylation, CD74-ROS1^G2032R cell [9]: significant inhibition of ROS1 phosphorylation occurred in a dose-dependent manner
- ROS1 Inhibition (1μM) (ROS1; [14]): 100%
- IC50 (ROS1; [11]): 4.7 nM
- fold potency superior to Crizotinib, ALK^G1202R enzyme (ALK^G1202R; ratio of enzymatic IC50 to Crizotinib): 10 fold
- IC50 (ALK^G1202R; [12]): 49.1 nM
- IC50 [3]: 33.1 ± 1.4 nM
- percentage of apoptotic NCI-H3122 cell (NCI-H3122 cells; 1.5 μM (IC50/2)): 15.61%
- percentage of apoptotic NCI-H3122 cell (NCI-H3122 cells; 3.0 μM (1 IC50)): 29.47%
- percentage of apoptotic NCI-H3122 cell (NCI-H3122 cells; 6.0 μM (2 IC50)): 35.13%
- IC50 [4, 10]: 3.9 ± 0.5 µM
- ALK Inhibition (1μM) (ALK^WT): 101%
- IC50 (ALK^WT; read-out: ALK IC50): 25.6 nM
- IC50 [5]: 120 ± 17.3 nM
- percentage of apoptotic HCC-78 cell (HCC-78 cells; 2.0 μM (IC50/2), 48 h, vehicle 10.7%): 15.9%
- percentage of apoptotic HCC-78 cell (HCC-78 cells; 7.8 μM (2 IC50), 48 h, vehicle 10.7%): 31.7%
- percentage of apoptotic HCC-78 cell (HCC-78 cells; C01 3.9 μM (1 IC50) vs Crizotinib 4.5 μM (1 IC50)): superior to that of Crizotinib treatment group
- phosphorylation of ROS1 and ERK, CD74-ROS1^WT cell [7]: attenuated phosphorylation of ROS1 and its key downstream molecule ERK in a dose-dependent manner
- c-MET Inhibition (1μM) (c-MET): 70%
- IC50 (ALK^L1196M; [13]): 404 nM
